For one data set, the system named is IL-6 production. The experiment in a line: Inhibition of IL-6 production (ELISA) in IL-1β-stimulated primary human lung fibroblasts. The conditions noted are these: Homo sapiens, Fibroblast; for inhibition at 10 µM: read-out: Il-6 % Inhibition 10 µM; for inhibition at 30 µM: read-out: Il-6 % Inhibition 30 µM. In general terms: ELISA stands for enzyme-linked immunosorbent assay.

In the next data set the test system is Balb/C mice. The experiment in a line: OVA-induced asthma model, inflammatory cell recruitment in BAL. It is filed as in vivo. The conditions noted are these: vs vehicle-treated OVA mice. The method, then: We decided to use this compound in vivo together with our newly synthesized compound 49d.
Animal experimentation was conducted in accordance with the European Communities Council Directive of 24 November 1986 (86/609/EEC) and the French ministry with the approval of the Regional Ethics Committee for animal research at the Strasbourg University (Authorization number 2015080309399690). Nine week-old male Balb/c mice (Janvier) were sensitized on days 0 and 7 by i.p. injection of ovalbumin (OVA, 50 μg, grade V, Sigma-Aldrich) adsorbed on aluminium hydroxide (2 mg, Sigma-Aldrich) in PBS. Mice were challenged intranasally (i.n.) with OVA (10 μg) in 25 μL of saline on days 18–21. Control mice received i.n. administrations of saline alone. Mice received compound (10 or 30 mg/kg) in saline solution with DMSO 5% or vehicle (saline, DMSO 5%) administered i.p. 2 h before each saline or OVA challenge. Collection of the bronchoalveolar lavage (BAL) fluid was performed 24 h after the last OVA challenge. Cell counts were assessed by flow cytometry (LSRII® cytometer, BD bioscience). BAL cells were added with FCblock (5 μL, 553142, BD bioscience) in a black microplate, incubated for 20 min at room temperature. Then, marker antibodies were added: CD45-AlexaFluor700 (103128, BioLegend, San Diego, CA, USA), CD11b-APC-Cy7 (557657, BD bioscience), CD11c-FITC (557400, BD bioscience, Franklin Lakes, NJ, USA), Gr-1-Pe-eFluor610 (61-5931-82, eBioscience). Antibodies were incubated for 30 min before DAPI (5 μL, BD bioscience) addition, and flow cytometry was performed immediately. Eosinophils were selected by CD45^+, CD11b^+, CD11C^- and GR-1^- gating.

A short description of data set [1]: WST-1 cytotoxicity test (cell viability). The conditions noted are these: human, human pulmonary (lung) fibroblasts.
Description: (§1) A WST1 (Roche) reagent assay was used to determine the cytotoxicity of compounds at 24 h of incubation. […] The absorbance was measured at 450 nm.
Data set [2] addresses T1, human synthetic MSK1 (14-438-K, Millipore) (Homo sapiens, UniProt O75582).
T1 construct: purchased Millipore 14-438-K
The experiment in a line: MSK1 enzymatic inhibition assay (Kinase-Glo luminescence). The format is biochemical. The conditions noted are these: for inhibition at 1 µM: compound at 1 µM, read-out: MSK1 % Inhibition 1 µM; for inhibition at 10 µM: compound at 10 µM, read-out: MSK1 % Inhibition 10 µM. As for the experimental part: All results are summarized in Table 1, Table 2, Table 3, Table 4 and Table 5 and on Figure 4. […]
An orthogonal luminescence-based assay Kinase-Glo® (Promega, Madison, WI, USA) was used to validate the hits, quantifying the amount of the remaining ATP in the solution following the kinase reaction. Enzymatic reactions were performed up to 4h at room temperature in presence of 3 µM ATP. All compounds were tested in quadruplicates at 1 µM and 10 µM. […] Luminescence was measured with EnVision Plate Reader (Perkin Elmer).
(In general: Kinase-Glo reads ATP consumption through a luciferase reaction.)

For data set [3], the system named is human pulmonary fibroblasts. The experiment in a line: WST-1 cytotoxicity test (cell viability). The conditions noted are these: WST-1, concentrations up to 30 µM.
Description: as §1
Setting [4] is: 30 mg/kg i.p. 2 h before each OVA challenge.
The mark [5] stands for this setting: 10 mg/kg i.p. 2 h before each OVA challenge.

The source of these data is publication PMC7828447, “Design, Synthesis and Biological Evaluation of Arylpyridin-2-yl Guanidine Derivatives and Cyclic Mimetics as Novel MSK1 Inhibitors. An Application in an Asthma Model” (Molecules, 2021).

T1 sequence (O75582 whole entry): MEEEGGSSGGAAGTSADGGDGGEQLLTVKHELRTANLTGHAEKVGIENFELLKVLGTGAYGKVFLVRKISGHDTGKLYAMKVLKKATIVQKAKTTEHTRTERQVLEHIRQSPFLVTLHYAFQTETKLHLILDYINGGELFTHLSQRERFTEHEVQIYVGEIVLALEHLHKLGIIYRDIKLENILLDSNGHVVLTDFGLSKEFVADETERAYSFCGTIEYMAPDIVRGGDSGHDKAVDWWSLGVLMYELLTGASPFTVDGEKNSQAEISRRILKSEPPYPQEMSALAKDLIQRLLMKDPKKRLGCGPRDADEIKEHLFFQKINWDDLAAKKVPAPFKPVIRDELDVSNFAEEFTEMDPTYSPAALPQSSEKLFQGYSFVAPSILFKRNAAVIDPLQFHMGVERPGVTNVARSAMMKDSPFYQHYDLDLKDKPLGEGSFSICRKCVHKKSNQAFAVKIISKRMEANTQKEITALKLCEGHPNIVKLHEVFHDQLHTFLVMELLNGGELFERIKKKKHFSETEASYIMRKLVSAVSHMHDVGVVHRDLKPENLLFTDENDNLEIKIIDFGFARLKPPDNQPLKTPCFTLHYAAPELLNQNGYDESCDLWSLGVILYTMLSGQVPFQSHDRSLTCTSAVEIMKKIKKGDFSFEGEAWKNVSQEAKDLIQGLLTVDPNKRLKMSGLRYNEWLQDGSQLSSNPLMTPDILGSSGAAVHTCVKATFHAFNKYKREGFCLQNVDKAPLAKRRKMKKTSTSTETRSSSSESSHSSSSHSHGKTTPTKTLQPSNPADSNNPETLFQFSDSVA
Description for IL-6 production: Primary human lung fibroblasts were cultured in DMEM/F-12 medium (Gibco Waltham, MA, USA) complemented with 10% fetal bovine serum (Gibco), penicillin (50 U/mL, Gibco), streptomycin (50 µg/mL, Gibco), L-glutamine (2 mM, Gibco), non-essential amino acids (0.1 mM, Gibco) and insulin (0.12 U/mL, Lilly, Indianapolis, IN, USA) Cells were used at passage 7.

For orientation: inhibition means the percentage by which the read-out fell short of the control. As usually defined, the IC50 is the concentration that inhibits the measured activity by half. Usually viability stands for a read-out of living cells in per cent, often relative to untreated cells. For the compound `O=C1NCCc2[nH]c(-c3ccncc3)cc21` [PHA767491, reference compound], in the data set with IL-6 production, the inhibition at 10 µM is 97 ± 1% and the inhibition at 30 µM turned out to be 98 ± 2%. Moreover, in the data set with IL-6 production (read-out: Il-6 IC50 (µM), IL-1β stimulation, 0.3-30 µM, n = 4), the IC50 stood at 1 ± 0.1 µM. In the data set with Balb/C mice (setting [4]), the “decrease of B cells infiltration in BAL” value was determined as 68 ± 7%, the “decrease of eosinophil infiltration in BAL” value is given as 57 ± 7% and the “decrease of total cell infiltration in BAL” value came out at 51 ± 6%. In data set [1], this compound came in with a viability at 24 h, 10 µM of 95 ± 9% and a viability at 24 h, 30 µM of 87 ± 7%. In addition, in data set [2] (± Standard Deviation (n = 4)), the inhibition at 1 µM worked out at 72 ± 5% and the inhibition at 10 µM is 94 ± 4%.
For the compound `Br.Nc1nc2c(-c3ccccc3Cl)cccc2[nH]1` [Compound 49d, 4-(2-Chlorophenyl)-1H-benzo[d]imidazol-2-amine Hydrobromide], in the data set on IL-6 production, the inhibition at 10 µM is 39 ± 15% and the inhibition at 30 µM was found to be 57 ± 2%. Moreover, in the data set with Balb/C mice (setting [5]), the “inhibition of B cell infiltration in BAL” value is 47 ± 1%, the “inhibition of eosinophil infiltration in BAL” value was 39 ± 3% and the “inhibition of total cell infiltration in BAL” value is listed as 33 ± 3%. In data set [1], this compound returned a viability at 24 h, 10 µM of 85 ± 13% and a viability at 24 h, 30 µM of 76 ± 12%. Also, the “cytotoxicity (in words)” value in data set [3] was “non-cytotoxic”. In addition, in data set [2] (± Standard Deviation (n = 4)), the inhibition at 1 µM worked out at 21 ± 5% and the inhibition at 10 µM amounted to 71 ± 7%. For the same compound, the “fold more potent MSK1 inhibitor compared to the parent compound” value in data set [2] (versus parent compound 1a) is reported as 10 fold. The IC50 in data set [2] (± Standard Deviation (n = 4), 8 concentrations 0.03-100 µM, read-out: MSK1 IC50) was found to be 1600 ± 100 nM.
